Source: ChEMBL document CHEMBL1909046, “DrugMatrix in vitro pharmacology data”

Tests used:
[1] = DRUGMATRIX: Serotonin (5-Hydroxytryptamine) 5-HT3 radioligand binding (ligand: [3H] GR-65630); assay type: cell membranes, Membrane; settings: hek293; Not Active = under 50% inhibition at 10 µM
[2] = target: T1, Endothelin-1 receptor (Homo sapiens, UniProt P25101); assay type: cell membranes, Membrane; settings: cho-k1; further: in other assays of this panel Not Active means under 50% inhibition at 10 µM
T1 sequence (P25101 whole entry): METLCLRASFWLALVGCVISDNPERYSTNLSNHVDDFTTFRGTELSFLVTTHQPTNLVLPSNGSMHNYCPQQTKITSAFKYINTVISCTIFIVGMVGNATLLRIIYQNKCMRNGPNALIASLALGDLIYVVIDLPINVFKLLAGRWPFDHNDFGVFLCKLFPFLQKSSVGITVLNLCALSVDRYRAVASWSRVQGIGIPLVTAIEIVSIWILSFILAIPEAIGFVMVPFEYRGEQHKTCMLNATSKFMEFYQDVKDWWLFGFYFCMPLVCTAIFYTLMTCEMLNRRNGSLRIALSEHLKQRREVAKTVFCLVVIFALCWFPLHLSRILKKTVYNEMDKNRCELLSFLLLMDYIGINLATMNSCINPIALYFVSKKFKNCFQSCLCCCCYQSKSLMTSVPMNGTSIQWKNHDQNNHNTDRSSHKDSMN

[3] = DRUGMATRIX: Purinergic P2X radioligand binding (ligand: [3H] alpha, beta-Methylene-ATP); assay type: cell membranes, Oryctolagus cuniculus, New Zealand albino, Urinary bladder, Membrane; settings: Not Active = under 50% inhibition at 10 µM
[4] = target: Mitogen-activated protein kinase 14 (Homo sapiens, UniProt Q16539); set-up: species or system Escherichia coli;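 further: inhibition of p38alpha enzyme activity in a biochemical kinase assay, with myelin basic protein serving as substrate; in other assays of this panel Not Active means under 50% inhibition at 10 µM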
Chain of Mitogen-activated protein kinase 14 (Q16539 whole entry): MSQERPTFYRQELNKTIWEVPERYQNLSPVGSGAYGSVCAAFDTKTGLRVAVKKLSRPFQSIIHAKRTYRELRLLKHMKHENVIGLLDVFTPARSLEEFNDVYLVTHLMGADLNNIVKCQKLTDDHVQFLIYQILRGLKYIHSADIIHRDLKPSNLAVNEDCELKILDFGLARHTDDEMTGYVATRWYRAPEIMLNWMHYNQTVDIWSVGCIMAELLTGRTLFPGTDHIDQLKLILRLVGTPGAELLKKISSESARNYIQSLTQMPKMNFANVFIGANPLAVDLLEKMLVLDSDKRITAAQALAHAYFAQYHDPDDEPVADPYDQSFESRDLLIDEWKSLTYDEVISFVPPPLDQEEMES

[5] = DRUGMATRIX: Sodium/nucleoside co-transporter radioligand binding (ligand: nitrobenzylthioinosine); assay type: cell membranes, Cavia porcellus, Dunkin-Hartley, Cerebral cortex, Membrane; settings: Not Active = under 50% inhibition at 10 µM
[6] = target: Nitric oxide synthase 1 (Rattus norvegicus, UniProt P29476); assay type: tissue-based, Cerebellum; further: in other assays of this panel Not Active means under 50% inhibition at 10 µM
Chain of Nitric oxide synthase 1 (P29476 whole entry): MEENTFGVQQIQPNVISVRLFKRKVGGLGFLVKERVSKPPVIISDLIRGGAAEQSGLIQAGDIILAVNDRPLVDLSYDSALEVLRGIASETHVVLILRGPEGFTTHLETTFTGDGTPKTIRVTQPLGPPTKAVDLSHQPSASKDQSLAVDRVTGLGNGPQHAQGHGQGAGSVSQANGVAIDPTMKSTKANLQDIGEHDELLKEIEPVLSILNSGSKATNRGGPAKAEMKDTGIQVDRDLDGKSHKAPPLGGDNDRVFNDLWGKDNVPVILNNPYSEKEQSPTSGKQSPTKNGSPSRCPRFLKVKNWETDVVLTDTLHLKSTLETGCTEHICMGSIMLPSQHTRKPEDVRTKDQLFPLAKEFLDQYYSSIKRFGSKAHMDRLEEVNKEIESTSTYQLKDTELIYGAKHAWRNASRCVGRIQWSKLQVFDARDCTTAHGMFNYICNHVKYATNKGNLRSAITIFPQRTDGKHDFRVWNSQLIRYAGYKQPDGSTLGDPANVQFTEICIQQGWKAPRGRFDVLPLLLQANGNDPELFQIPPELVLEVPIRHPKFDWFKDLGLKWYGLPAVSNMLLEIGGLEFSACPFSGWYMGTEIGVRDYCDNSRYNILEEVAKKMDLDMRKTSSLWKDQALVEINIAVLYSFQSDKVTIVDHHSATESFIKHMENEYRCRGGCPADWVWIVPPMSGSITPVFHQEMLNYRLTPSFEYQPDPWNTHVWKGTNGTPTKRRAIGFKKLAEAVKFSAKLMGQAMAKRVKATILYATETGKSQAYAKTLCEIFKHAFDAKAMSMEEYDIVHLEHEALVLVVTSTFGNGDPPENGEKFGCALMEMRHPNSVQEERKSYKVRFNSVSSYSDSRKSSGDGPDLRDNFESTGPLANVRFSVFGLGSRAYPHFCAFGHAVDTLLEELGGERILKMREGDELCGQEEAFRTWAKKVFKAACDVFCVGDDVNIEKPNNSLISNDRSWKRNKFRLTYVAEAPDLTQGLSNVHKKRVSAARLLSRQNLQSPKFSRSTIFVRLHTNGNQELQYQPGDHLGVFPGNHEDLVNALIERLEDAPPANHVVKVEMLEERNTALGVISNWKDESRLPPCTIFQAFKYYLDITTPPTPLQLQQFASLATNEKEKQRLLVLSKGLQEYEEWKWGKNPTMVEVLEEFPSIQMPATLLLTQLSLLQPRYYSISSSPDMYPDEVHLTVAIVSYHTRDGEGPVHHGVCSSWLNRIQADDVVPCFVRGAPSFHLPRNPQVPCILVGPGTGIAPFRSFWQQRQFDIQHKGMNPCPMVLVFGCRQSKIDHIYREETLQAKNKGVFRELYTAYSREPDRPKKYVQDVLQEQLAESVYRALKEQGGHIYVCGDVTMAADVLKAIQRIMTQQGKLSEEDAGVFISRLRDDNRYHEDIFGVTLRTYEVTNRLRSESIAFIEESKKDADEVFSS

[7] = target: T2, Muscarinic acetylcholine receptor M4 (Homo sapiens, UniProt P08173); assay type: cell membranes, CHO-K1, Membrane; settings: cho-k1; further: in other assays of this panel Not Active means under 50% inhibition at 10 µM
T2 sequence (P08173 whole entry): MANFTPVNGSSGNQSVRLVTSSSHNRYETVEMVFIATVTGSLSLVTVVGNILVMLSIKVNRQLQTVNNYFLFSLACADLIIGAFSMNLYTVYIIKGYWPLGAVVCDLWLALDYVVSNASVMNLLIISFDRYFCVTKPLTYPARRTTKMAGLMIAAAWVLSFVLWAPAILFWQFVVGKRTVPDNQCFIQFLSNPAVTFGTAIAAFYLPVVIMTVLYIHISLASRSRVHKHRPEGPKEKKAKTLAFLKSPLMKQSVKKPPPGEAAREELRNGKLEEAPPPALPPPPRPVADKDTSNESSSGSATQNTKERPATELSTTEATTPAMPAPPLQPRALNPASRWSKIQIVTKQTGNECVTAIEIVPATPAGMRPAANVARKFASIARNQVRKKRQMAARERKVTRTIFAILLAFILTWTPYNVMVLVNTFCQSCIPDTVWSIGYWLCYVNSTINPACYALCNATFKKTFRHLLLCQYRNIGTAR

[8] = target: Tyrosine-protein kinase Fyn (Homo sapiens, UniProt P06241); assay: biochemical; assay type: cell-based, Insect cells; settings: insect cells
Chain of Tyrosine-protein kinase Fyn (P06241 whole entry): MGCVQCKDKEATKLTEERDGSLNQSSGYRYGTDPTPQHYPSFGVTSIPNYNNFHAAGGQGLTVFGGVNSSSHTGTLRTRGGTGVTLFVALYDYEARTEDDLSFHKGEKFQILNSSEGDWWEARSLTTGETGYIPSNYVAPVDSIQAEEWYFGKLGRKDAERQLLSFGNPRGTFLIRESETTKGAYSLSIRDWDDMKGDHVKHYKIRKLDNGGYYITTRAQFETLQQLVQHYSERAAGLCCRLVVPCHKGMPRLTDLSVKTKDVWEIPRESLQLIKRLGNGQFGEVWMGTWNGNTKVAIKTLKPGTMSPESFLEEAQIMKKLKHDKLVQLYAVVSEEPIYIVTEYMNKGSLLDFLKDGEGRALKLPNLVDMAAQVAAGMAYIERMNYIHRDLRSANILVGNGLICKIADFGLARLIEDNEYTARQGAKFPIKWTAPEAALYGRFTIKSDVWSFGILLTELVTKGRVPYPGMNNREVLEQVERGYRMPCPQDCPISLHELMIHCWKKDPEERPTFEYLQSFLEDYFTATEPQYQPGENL

[9] = DRUGMATRIX: Phosphodiesterase PDE4 enzyme inhibition (substrate: [3H]cAMP + cAMP); settings: u-937, Not Active = under 50% inhibition at 10 µM
[10] = target: 5-hydroxytryptamine receptor 2B (Homo sapiens, UniProt P41595); assay type: cell membranes, CHO-K1, Membrane; settings: cho-k1; further: in other assays of this panel Not Active means under 50% inhibition at 10 µM
Chain of 5-hydroxytryptamine receptor 2B (P41595 whole entry): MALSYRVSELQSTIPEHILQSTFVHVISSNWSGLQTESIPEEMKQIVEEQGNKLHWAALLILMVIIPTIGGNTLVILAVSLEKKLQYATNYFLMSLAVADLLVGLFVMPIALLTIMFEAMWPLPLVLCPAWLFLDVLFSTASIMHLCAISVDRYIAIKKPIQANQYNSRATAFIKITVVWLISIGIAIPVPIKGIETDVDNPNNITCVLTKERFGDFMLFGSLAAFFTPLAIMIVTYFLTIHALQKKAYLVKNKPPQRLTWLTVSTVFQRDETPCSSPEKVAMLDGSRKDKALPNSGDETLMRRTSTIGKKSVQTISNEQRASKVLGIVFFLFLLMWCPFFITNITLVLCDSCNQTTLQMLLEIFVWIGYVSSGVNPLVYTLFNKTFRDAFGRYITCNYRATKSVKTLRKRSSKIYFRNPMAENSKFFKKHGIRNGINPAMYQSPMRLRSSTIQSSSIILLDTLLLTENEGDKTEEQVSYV

[11] = DRUGMATRIX: Glutamate, AMPA radioligand binding (ligand: [3H] AMPA); assay type: cell membranes, Rattus norvegicus, Wistar, Cerebral cortex, Membrane; settings: Not Active = under 50% inhibition at 10 µM
[12] = target: T3, Cytochrome P450 2A6 (Homo sapiens, UniProt P11509); settings: bti-tn-5b1-4; further: in other assays of this panel Not Active means under 50% inhibition at 10 µM
T3 sequence (P11509 whole entry): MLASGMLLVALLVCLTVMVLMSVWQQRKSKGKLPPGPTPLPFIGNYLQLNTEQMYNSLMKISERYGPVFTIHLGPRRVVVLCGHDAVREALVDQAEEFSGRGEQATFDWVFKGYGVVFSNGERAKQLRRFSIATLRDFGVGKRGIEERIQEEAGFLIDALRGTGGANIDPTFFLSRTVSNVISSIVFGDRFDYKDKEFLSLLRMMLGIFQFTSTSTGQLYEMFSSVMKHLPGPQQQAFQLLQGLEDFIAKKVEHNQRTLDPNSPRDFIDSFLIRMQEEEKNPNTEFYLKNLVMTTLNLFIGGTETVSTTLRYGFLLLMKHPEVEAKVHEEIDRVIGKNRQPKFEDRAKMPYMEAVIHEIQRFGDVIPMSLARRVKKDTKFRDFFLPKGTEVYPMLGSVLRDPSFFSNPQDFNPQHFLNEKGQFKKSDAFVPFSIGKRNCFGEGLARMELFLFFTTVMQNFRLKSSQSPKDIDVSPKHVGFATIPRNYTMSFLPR

[13] = target: 5-hydroxytryptamine receptor 6 (Homo sapiens, UniProt P50406); assay type: cell membranes, HeLa, Membrane; settings: hela; further: in other assays of this panel Not Active means under 50% inhibition at 10 µM
Chain of 5-hydroxytryptamine receptor 6 (P50406 whole entry): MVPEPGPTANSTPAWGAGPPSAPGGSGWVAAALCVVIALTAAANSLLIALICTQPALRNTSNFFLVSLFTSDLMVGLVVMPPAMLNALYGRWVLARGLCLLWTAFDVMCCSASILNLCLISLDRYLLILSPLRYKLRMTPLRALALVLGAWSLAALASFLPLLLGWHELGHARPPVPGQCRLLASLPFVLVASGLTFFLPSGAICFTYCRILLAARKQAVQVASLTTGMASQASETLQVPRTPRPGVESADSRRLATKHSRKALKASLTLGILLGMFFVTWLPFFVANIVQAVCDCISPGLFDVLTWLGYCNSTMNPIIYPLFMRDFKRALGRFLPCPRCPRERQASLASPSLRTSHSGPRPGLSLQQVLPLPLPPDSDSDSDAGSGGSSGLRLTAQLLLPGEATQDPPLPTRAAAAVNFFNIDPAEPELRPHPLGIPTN

[14] = target: T4, Polyunsaturated fatty acid lipoxygenase ALOX15 (Oryctolagus cuniculus, UniProt P12530); assay: biochemical; assay type: tissue-based, Reticulocytes; settings: reticulocytes
T4 sequence (P12530 whole entry): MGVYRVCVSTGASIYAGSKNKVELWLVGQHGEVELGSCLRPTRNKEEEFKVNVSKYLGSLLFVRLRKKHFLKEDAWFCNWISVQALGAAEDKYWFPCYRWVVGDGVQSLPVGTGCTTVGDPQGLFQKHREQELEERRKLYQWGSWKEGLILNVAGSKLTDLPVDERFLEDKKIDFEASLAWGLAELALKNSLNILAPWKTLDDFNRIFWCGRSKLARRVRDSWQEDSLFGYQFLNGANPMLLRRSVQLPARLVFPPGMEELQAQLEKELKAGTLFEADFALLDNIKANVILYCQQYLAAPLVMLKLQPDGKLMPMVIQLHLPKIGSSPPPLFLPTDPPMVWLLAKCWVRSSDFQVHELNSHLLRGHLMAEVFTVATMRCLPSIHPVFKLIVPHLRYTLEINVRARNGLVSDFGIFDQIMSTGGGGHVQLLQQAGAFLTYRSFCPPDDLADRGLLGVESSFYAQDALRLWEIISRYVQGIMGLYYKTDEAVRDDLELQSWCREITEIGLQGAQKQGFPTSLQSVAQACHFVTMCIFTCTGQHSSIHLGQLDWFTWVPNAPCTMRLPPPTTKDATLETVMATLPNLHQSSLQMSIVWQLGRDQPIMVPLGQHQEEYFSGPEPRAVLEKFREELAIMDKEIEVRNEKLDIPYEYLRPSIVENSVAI

Compound | IC50 [1] | Ki [1] | IC50 [2] | IC50 [3] | Ki [3] | IC50 [4] | IC50 [5] | Ki [5] | IC50 [6] | IC50 [7] | IC50 [8] | IC50 [10] | IC50 [11] | Ki [11] | IC50 [12] | Ki [12] | IC50 [13] | IC50 [14] | IC50 [9] | Ki [9] | further results
O=c1cc(-c2ccccc2)oc2c1ccc1ccccc12 [ALPHA-NAPHTHOFLAVONE] | Not Active | Not Active | Not Active | Not Active | Not Active | Not Active | Not Active | Not Active | Not Active | Not Active | Not Active | Not Active | Not Active | Not Active | Not Active | Not Active | Not Active | Not Active | – | – | IC50 ([9]; read-out: IC50): 2920 nM
CC(=O)OCC(=O)[C@@]1(OC(C)=O)[C@@H](C)C[C@H]2[C@@H]3C[C@H](F)C4=CC(=O)C=C[C@]4(C)[C@@]3(F)[C@@H](O)C[C@@]21C [DIFLORASONE DIACETATE] | Not Active | Not Active | Not Active | Not Active | Not Active | Not Active | Not Active | Not Active | Not Active | Not Active | Not Active | Not Active | Not Active | Not Active | Not Active | Not Active | Not Active | Not Active | Not Active | Not Active | –
CNC(=O)Oc1ccc2c(c1)[C@]1(C)CCN(C)[C@@H]1N2C [PHYSOSTIGMINE] | Not Active | Not Active | Not Active | Not Active | Not Active | Not Active | Not Active | Not Active | Not Active | Not Active | Not Active | Not Active | Not Active | Not Active | Not Active | Not Active | Not Active | Not Active | Not Active | Not Active | –
